These results are taken from ChEMBL document CHEMBL1143479, “Carbonic anhydrase inhibitors: inhibition of the tumor-associated isozymes IX and XII with a library of aromatic and heteroaromatic sulfonamides” (Bioorg Med Chem Lett, 2005).

Experiment [1] addresses Carbonic anhydrase 9 (Homo sapiens, UniProt Q16790).
Experiment [2] deals with Carbonic anhydrase 2 (Homo sapiens, UniProt P00918).
In experiment [3] the target is Carbonic anhydrase 1 (Homo sapiens, UniProt P00915).
Experiment [4] addresses Carbonic anhydrase 12 (Homo sapiens, UniProt O43570).

Chain of Carbonic anhydrase 12 (O43570 whole entry): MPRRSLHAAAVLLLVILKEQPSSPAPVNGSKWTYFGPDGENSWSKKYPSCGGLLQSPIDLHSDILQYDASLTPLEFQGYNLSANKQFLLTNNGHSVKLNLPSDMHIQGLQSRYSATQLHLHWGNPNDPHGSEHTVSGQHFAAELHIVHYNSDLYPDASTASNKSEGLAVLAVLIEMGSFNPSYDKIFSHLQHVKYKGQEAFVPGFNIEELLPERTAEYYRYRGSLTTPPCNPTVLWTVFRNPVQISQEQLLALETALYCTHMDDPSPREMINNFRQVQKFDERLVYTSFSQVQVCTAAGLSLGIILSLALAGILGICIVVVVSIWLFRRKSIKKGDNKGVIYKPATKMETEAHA
Chain of Carbonic anhydrase 1 (P00915 whole entry): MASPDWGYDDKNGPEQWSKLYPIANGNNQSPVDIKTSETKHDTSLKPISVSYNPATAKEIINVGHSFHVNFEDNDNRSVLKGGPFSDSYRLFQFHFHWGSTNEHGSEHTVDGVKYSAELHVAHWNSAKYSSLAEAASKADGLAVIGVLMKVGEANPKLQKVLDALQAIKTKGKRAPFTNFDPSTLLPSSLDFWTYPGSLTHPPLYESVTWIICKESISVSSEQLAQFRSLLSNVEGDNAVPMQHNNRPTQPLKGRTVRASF

Turning to `CC(=O)Nc1ccc(Nc2ccc(S(N)(=O)=O)cc2)cc1`, the Ki in experiment [1] came to 37 nM.
Still for that read-out and setting: as for `CC(C)(C)C(=O)Nc1ccc(S(N)(=O)=O)cc1`, the figure is 136 nM; as for `CC(C)C(=O)Nc1ccc(S(N)(=O)=O)cc1`, 139 nM.
The same measure, in the same setting: next, `CCCC(=O)Nc1ccc(S(N)(=O)=O)cc1`: 83 nM.
As to `NS(=O)(=O)c1ccc(CCNC(=S)Nc2ccccc2)cc1`, the Ki in experiment [2] was determined as 53 nM; in experiment [3], 50 nM; in experiment [1], 21 nM; in experiment [4], 24 nM.
With `CCCCC(=O)Nc1ccc(S(N)(=O)=O)cc1`, affinity in experiment [1] was put at a Ki of 79 nM.
For `NS(=O)(=O)c1ccc(CCNC(=S)Nc2ccc(S(N)(=O)=O)cc2)cc1`, the Ki in experiment [2] worked out at 4 nM; in experiment [3], 37 nM; in experiment [4] it was 79 nM.
For the compound `NS(=O)(=O)c1cccc(NC(=O)Nc2ccccc2)c1`, the Ki in experiment [3] is 1500 nM; in experiment [1], 14 nM; in experiment [4] it was 10 nM.
Compound `CC(=O)Nc1ccc(S(N)(=O)=O)cc1` registered a Ki in experiment [4] of 49 nM.
